Reference: patent US10988792B2, “Methods for antimicrobial resistance determination” (bioMerieux, Inc., priority 2009, dated 2021)

Legend:
Assay type in all cases: cell-based
E. faecium 12406 (VRE) = assay: Co-culture with vancomycin and Sytox Green, intrinsic fluorescence and membrane integrity of pellet; conditions: for Microbial tryptophan fluorescence (Ex300 nm/Em360 nm) / Microbial NADH fluorescence (Ex340 nm/Em440 nm): 12406 (VRE)
Experimental: For each test strain, a 1 μL loopful of colonies from a 24-48 hour plate was suspended in 10-12 mL of BacT/ALERT SA media and cultured for 4-9 hours at 37° C. […] Aliquots of the cultures were removed for analysis immediately (T0) and after 1, 2.5 and 4 hours.
(§1) At the appropriate time-point, 0.5 mL aliquots of the cultures (0.5 mL) were overlaid on a density cushion composed of 24% w/v CsCl in 10 mM Hepes, pH 7.4 and 0.005% Pluronic F-108 contained in custom-made optical centrifugation tubes as disclosed in related U.S. patent application, Ser. No. 12/589,969, entitled “Separation Device for Use in the Separation, Characterization and/or Identification of Microorganisms”, filed Oct. 30, 2009. The tubes were sealed and centrifuged at 10,000 rpm for 2 minutes to separate intact microorganisms from the culture medium and unbound chemicals. The tubes were then placed into a custom-built tube holder directly onto a fiber optic probe built into the base. The probe was attached to a FluoroLog 3 spectrofluorimeter. The tube was interrogated through its UV-transparent base, and fluorescence and diffuse reflectance readings collected.

E. faecium #12406 (VRE) = assay: Vancomycin MIC by VITEK 2; conditions: read-out: vancomycin MIC by VITEK 2
E. faecium #13185 (VRE) = assay: Vancomycin MIC by VITEK 2; conditions: read-out: vancomycin MIC by VITEK 2
E. faecium 12480 (VSE) = assay: Co-culture with vancomycin and Sytox Green, intrinsic fluorescence and membrane integrity of pellet; conditions: for Microbial NADH fluorescence (Ex340 nm/Em440 nm) / Microbial tryptophan fluorescence (Ex300 nm/Em360 nm): 12480 (VSE)
Experimental: For each test strain, a 1 μL loopful of colonies from a 24-48 hour plate was suspended in 10-12 mL of BacT/ALERT SA media and cultured for 4-9 hours at 37° C. Samples of each log phase culture were then incubated with 0, 0.25, 2.5 and 12.5 μg/mL of vancomycin-HCl in combination with 1:5000 dilution of stock Sytox Green, a viable cell impermeant DNA stain (Molecular Probes, cat #S7020), for a period of 4 hours at 37° C. Aliquots of the cultures were removed for analysis immediately (T0) and after 1, 2.5 and 4 hours.
as §1

[1] = VRE strain 12406, vancomycin 2.5 and 12.5 μg/mL
[2] = VSE strain 12480, vancomycin 2.5 and 12.5 μg/mL

`CN[C@H](CC(C)C)C(=O)N[C@H]1C(=O)N[C@@H](CC(N)=O)C(=O)N[C@H]2C(=O)N[C@H]3C(=O)N[C@H](C(=O)N[C@H](C(=O)O)c4cc(O)cc(O)c4-c4cc3ccc4O)[C@H](O)c3ccc(c(Cl)c3)Oc3cc2cc(c3O[C@@H]2O[C@H](CO)[C@@H](O)[C@H](O)[C@H]2O[C@H]2C[C@](C)(N)[C@H](O)[C@H](C)O2)Oc2ccc(cc2Cl)[C@H]1O` [vancomycin] was tested. Which “Microbial tryptophan fluorescence (Ex300 nm/Em360 nm)” value (from here on “Microbial tryptophan fluorescence”) (E. faecium 12406 (VRE); Vanc. 2.5 μg/mL, Zero time) did it give?
Its value is 425,860.

What about the “Microbial NADH fluorescence (Ex340 nm/Em440 nm)” value (“Microbial NADH fluorescence” below) (E. faecium 12406 (VRE); Vanc. 12.5 μg/mL, 1 hour) of the same molecule?
The value was 207,520.

What about the “Microbial tryptophan fluorescence” value (E. faecium 12406 (VRE); Vanc. 12.5 μg/mL, 1 hour) of the same molecule?
Its value is 433,269.

What about the “Microbial NADH fluorescence” value (E. faecium 12406 (VRE); Vanc. 12.5 μg/mL, 2.5 hour) of the same molecule?
The value was 279,170.

What about the “Microbial tryptophan fluorescence” value (E. faecium 12406 (VRE); Vanc. 12.5 μg/mL, 2.5 hour) of the same molecule?
The value was 560,607.

And the “Microbial NADH fluorescence” value (E. faecium 12406 (VRE); Vanc. 12.5 μg/mL, 4 hour)?
Its value is 765,401.

What about the “Microbial tryptophan fluorescence” value (E. faecium 12406 (VRE); Vanc. 12.5 μg/mL, 4 hour) of the same molecule?
The value was 738,461.

And the “Microbial NADH fluorescence” value (E. faecium 12406 (VRE); Vanc. 12.5 μg/mL, Zero time)?
The value was 172,372.

And the “Microbial tryptophan fluorescence” value (E. faecium 12406 (VRE); Vanc. 12.5 μg/mL, Zero time)?
The value was 463,985.

What about the “Course of cellular NADH levels” value (E. faecium 12406 (VRE); [1]) of the same molecule?
Its value is “rose after approximately 1 hour in culture and continued to rise over the 4-hour culture period”.

What about the “Course of cellular tryptophan levels” value (E. faecium 12406 (VRE); [1]) of the same molecule?
Its value is “rose slowly over the 4-hour culture period”.

What about the “Delay in NADH production compared with the other VRE strain” value (E. faecium 12406 (VRE); VRE strain #12406, correlated with an influx of Sytox Green) of the same molecule?
The value was “longer delay in NADH production”.

And the MIC (E. faecium #12406 (VRE))?
Its MIC is > 32 µg/mL.

And the MIC (E. faecium #13185 (VRE))?
Its MIC is > 32 µg/mL.

What about the “Microbial NADH fluorescence” value (E. faecium 12480 (VSE); Vanc. 0.25 μg/mL, 1 hour) of the same molecule?
The value was 271,470.

What about the “Microbial tryptophan fluorescence” value (E. faecium 12480 (VSE); Vanc. 0.25 μg/mL, 1 hour) of the same molecule?
Its value is 460,266.

What about the “Microbial NADH fluorescence” value (E. faecium 12480 (VSE); Vanc. 0.25 μg/mL, 2.5 hour) of the same molecule?
The value was 500,618.

And the “Microbial tryptophan fluorescence” value (E. faecium 12480 (VSE); Vanc. 0.25 μg/mL, 2.5 hour)?
Its value is 678,352.

What about the “Microbial NADH fluorescence” value (E. faecium 12480 (VSE); Vanc. 0.25 μg/mL, 4 hour) of the same molecule?
Its value is 483,445.

What about the “Microbial tryptophan fluorescence” value (E. faecium 12480 (VSE); Vanc. 0.25 μg/mL, 4 hour) of the same molecule?
Its value is 706,797.

And the “Microbial NADH fluorescence” value (E. faecium 12480 (VSE); Vanc. 0.25 μg/mL, Zero time)?
Its value is 184,649.

What about the “Microbial tryptophan fluorescence” value (E. faecium 12480 (VSE); Vanc. 0.25 μg/mL, Zero time) of the same molecule?
Its value is 425,539.

What about the “Microbial NADH fluorescence” value (E. faecium 12480 (VSE); Vanc. 2.5 μg/mL, 1 hour) of the same molecule?
The value was 254,828.

What about the “Microbial tryptophan fluorescence” value (E. faecium 12480 (VSE); Vanc. 2.5 μg/mL, 1 hour) of the same molecule?
Its value is 438,541.

What about the “Microbial NADH fluorescence” value (E. faecium 12480 (VSE); Vanc. 2.5 μg/mL, 2.5 hour) of the same molecule?
Its value is 149,686.

What about the “Microbial tryptophan fluorescence” value (E. faecium 12480 (VSE); Vanc. 2.5 μg/mL, 2.5 hour) of the same molecule?
Its value is 466,525.

What about the “Microbial NADH fluorescence” value (E. faecium 12480 (VSE); Vanc. 2.5 μg/mL, 4 hour) of the same molecule?
The value was 100,931.

And the “Microbial tryptophan fluorescence” value (E. faecium 12480 (VSE); Vanc. 2.5 μg/mL, 4 hour)?
Its value is 416,780.

What about the “Microbial NADH fluorescence” value (E. faecium 12480 (VSE); Vanc. 2.5 μg/mL, Zero time) of the same molecule?
Its value is 221,692.

And the “Microbial tryptophan fluorescence” value (E. faecium 12480 (VSE); Vanc. 2.5 μg/mL, Zero time)?
Its value is 361,962.

And the “Microbial NADH fluorescence” value (E. faecium 12480 (VSE); Vanc. 12.5 μg/mL, 1 hour)?
Its value is 210,963.

What about the “Microbial tryptophan fluorescence” value (E. faecium 12480 (VSE); Vanc. 12.5 μg/mL, 1 hour) of the same molecule?
Its value is 428,402.

What about the “Microbial NADH fluorescence” value (E. faecium 12480 (VSE); Vanc. 12.5 μg/mL, 2.5 hour) of the same molecule?
Its value is 171,994.

And the “Microbial tryptophan fluorescence” value (E. faecium 12480 (VSE); Vanc. 12.5 μg/mL, 2.5 hour)?
Its value is 455,446.

What about the “Microbial NADH fluorescence” value (E. faecium 12480 (VSE); Vanc. 12.5 μg/mL, 4 hour) of the same molecule?
The value was 127,042.

What about the “Microbial tryptophan fluorescence” value (E. faecium 12480 (VSE); Vanc. 12.5 μg/mL, 4 hour) of the same molecule?
Its value is 438,978.

And the “Microbial NADH fluorescence” value (E. faecium 12480 (VSE); Vanc. 12.5 μg/mL, Zero time)?
The value was 178,982.

And the “Microbial tryptophan fluorescence” value (E. faecium 12480 (VSE); Vanc. 12.5 μg/mL, Zero time)?
The value was 389,264.

What about the “Course of cellular NADH levels” value (E. faecium 12480 (VSE); [2]) of the same molecule?
The value was “gradually declined over time”.

And the “Course of cellular tryptophan levels” value (E. faecium 12480 (VSE); [2])?
The value was “remained stable over time”.
